Measurements as given in patent US20060209305A1, “Biosensor” (FUJI PHOTO FILM CO., LTD., priority 2005, published 2006).

System: Carbonic Anhydrase
Experiment: Evaluation of Hydrochlorothiazide binding capacity by surface plasmon resonance on CA captured on an Anti-CA-immobilized chip
Conditions: two minutes after start of replacement
Protocol: The following experiment was carried out using a device shown in FIG. 22 of Japanese Patent Laid-Open No. 2001-330560 (hereinafter referred to as the surface plasmon resonance measurement device of the present invention) (shown in FIG. 1 of the present specification) and a dielectric block shown in FIG. 23 of Japanese Patent Laid-Open No. 2001-330560 (hereinafter referred to as the dielectric block of the present invention) (shown in FIG. 2 of the present specification).
After solutions were removed from the above dextran measuring chip, 70 μl of a mixture solution of 200 mM EDC (N-ethyl-N′-(3-dimethylaminopropyl)carbodiimide hydrochloride) and 50 mM NHS (N-hydroxysuccinimide) was added and the chip was then allowed to stand for 10 minutes. After the mixture solution was removed, the chip was washed three times with 100 μl of water and three times with 100 μl of Acetate 4.5 buffer (produced by Biacore). The chip filled with 100 μl of Acetate 4.5 buffer was set on the surface plasmon resonance measurement device of the present invention. The inside of the chip was replaced with anti-Carbonic Anhydrase antibody (hereafter referred to as Anti-CA, which was purchased from COSMO BIO Co., Ltd.(NOR)) solution (dissolved in Acetate 4.5 (produced by BIAcore) to […]), and the chip was allowed to stand for 30 minutes for immobilizing the Anti-CA. The inside of the chip was then replaced with 1M ethanolamine solution, and the chip was allowed to stand for 10 minutes. The inside of the chip was washed ten times with 100 μl of Acetate 4.5 buffer, thereby preparing an Anti-CA-immobilized chip. The amount of change in resonance signal due to Anti-CA immobilization was 15,000RU. After the measurement of the signal change, the inside of the Anti-CA-immobilized chip was washed three times with 100μl of 1×PBS (pH7.4) buffer (Wako Pure Chemical Industries, Ltd.).
The dielectric block of the Anti-CA-immobilized chip was then capped with a silicon rubber, thereby preparing a cell with an inner volume of 15 μl. Also, a fluid channel system was prepared by making two 1-mm φ holes in the silicon rubber cap and putting a teflon tube (registered trademark) with an internal diameter of 0.5 mm and an external diameter of 1 mm through the holes. Individual chips with such fluid channel system were set on the surface plasmon resonance measurement device of the present invention.
The inside of the fluid channel system was filled with 1×PBS (pH7.4) buffer. Signal changes were measured at 0.5 seconds intervals with reference to the signal prior to the replacement of the fluid. The inside of the fluid channel system was then replaced with Carbonic Anhydrase (produced by SIGMA, hereinafter referred to as CA) solution (dissolved in 1×PBS (pH7.4) to 100 μg/ml). When the binding signal reached 3,000RU, the inside was replaced with Hydrochlorothiazide (produced by SIGMA) solution (dissolved in 1×PBS (pH7.4) to 50 μM) by the individual methods indicated in Table 1. […] In order to obtain highly reliable data, it is preferable that the compound binding detection signal be 5RU or more.

SMILES: NS(=O)(=O)c1cc2c(cc1Cl)NCNS2(=O)=O [Hydrochlorothiazide]
- Signal change (Method No. 1 (Example): 50 μM in 1×PBS pH7.4, fluid 100 μl, flow 100 μl/sec, replacement 1 sec, stop 119 sec): 15 RU
- Signal change (Method No. 2 (Example): 50 μM in 1×PBS pH7.4, fluid 100 μl, flow 10 μl/sec, replacement 10 sec, stop 110 sec): 12 RU
- Signal change (Method No. 3 (Example): 50 μM in 1×PBS pH7.4, fluid 150 μl, flow 5 μl/sec, replacement 30 sec, stop 90 sec): 10 RU
- Signal change (Method No. 4 (Example): 50 μM in 1×PBS pH7.4, fluid 200 μl, flow 20 μl/sec, replacement 10 sec, stop 110 sec): 10 RU
- Signal change (Method No. 5 (Comparative example): 50 μM in 1×PBS pH7.4, fluid 300 μl, flow 2.5 μl/sec, replacement 120 sec, stop 0 sec): −1 RU
- Signal change (Method No. 6 (Comparative example): 50 μM in 1×PBS pH7.4, fluid 600 μl, flow 5 μl/sec, replacement 120 sec, stop 0 sec): −4 RU
- Signal change (Method No. 7 (Comparative example): 50 μM in 1×PBS pH7.4, fluid 1200 μl, flow 10 μl/sec, replacement 120 sec, stop 0 sec): −10 RU
- Signal change (Method No. 8 (Comparative example): 50 μM in 1×PBS pH7.4, fluid 2400 μl, flow 20 μl/sec, replacement 120 sec, stop 0 sec): −20 RU
